Results on 10 compounds are retold here after patent publication US20260191968A1, “PROTAC DEGRADERS OF MLLT1 AND/OR MLLT3” (DARK BLUE THERAPEUTICS LTD, priority 2024, published 2026).

Experiment [1] deals with MV4-11 cells. The experiment in a line: MV4-11 cellular proliferative assay, Assay Format B (CTG 2.0, 168 h). The class given is cell-based. Conditions: Homo sapiens, 168 h (7 days), CTG 2.0, read-out: IC50 (MV4-11 cellular proliferative assay, Assay format B). The procedure, abridged: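 MV4-11 cells seeded overnight in IMDM + 10% FBS, then exposed to 10-point, 3-fold dilutions from 1 uM or 100 nM top concentration (0.3% DMSO final) for 168 h at 37 °C. CTG 2.0 luminescence read; % viability vs DMSO control fitted by four-parameter logistic regression.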

Experiment [2] deals with T1, MLLT1 (Homo sapiens, UniProt Q03111).
T1 construct: host or cells: MV4-11
T1 sequence (Q03111 1-559): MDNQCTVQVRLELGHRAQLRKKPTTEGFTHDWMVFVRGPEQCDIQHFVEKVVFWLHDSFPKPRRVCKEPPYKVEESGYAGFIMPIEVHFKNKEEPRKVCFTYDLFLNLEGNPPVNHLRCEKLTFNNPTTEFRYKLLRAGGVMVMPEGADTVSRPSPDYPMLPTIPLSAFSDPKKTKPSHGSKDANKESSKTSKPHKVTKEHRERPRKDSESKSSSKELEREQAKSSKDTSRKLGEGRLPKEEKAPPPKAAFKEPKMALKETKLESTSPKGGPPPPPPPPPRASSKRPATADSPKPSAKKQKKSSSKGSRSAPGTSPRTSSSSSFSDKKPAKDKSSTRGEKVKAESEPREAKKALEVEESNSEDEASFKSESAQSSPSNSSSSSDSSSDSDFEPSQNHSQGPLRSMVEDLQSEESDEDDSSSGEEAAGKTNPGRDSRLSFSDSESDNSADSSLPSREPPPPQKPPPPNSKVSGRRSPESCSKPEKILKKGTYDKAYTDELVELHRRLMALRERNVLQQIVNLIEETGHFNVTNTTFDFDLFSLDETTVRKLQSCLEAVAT
The experiment in a line: MLLT1 degradation assay in MV4-11 cells (JESS chemiluminescent detection), three concentrations, 24 h. The class given is cell-based. Conditions: with respect to DMSO control. The procedure, abridged: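 MV4-11 cells treated 24 h at 37° C, 5% CO2 with 1000, 100 and 10 nM compound (0.1% DMSO final). MLLT1 quantified by automated capillary chemiluminescent immunodetection; band peak area expressed as % degradation relative to DMSO control.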

Each structure is given as a SMILES string.

In general, IC50 refers to the concentration that inhibits the measured activity by half. On to `CN1CCC[C@@H]1c1cc2cnc(NC(=O)c3ccc(OCCCC#Cc4cccc5c4CN(C4CCC(=O)NC4=O)C5=O)nc3)cc2[nH]1` (stereo partly drawn) [Example 150, 6-((5-(2-(2,6-dioxopiperidin-3-yl)-1-oxoisoindolin-4-yl)pent-4-yn-1-yl)oxy)-N-(2-((R)-1-methylpyrrolidin-2-yl)-1H-pyrrolo[3,2-c]pyridin-6-yl)nicotinamide], for which the half-inhibitory concentration (IC50) in experiment [1] was at most 100 nM. In addition, in experiment [2], the “MLLT1% Degradation @ 0.01 μM” value was “A (Category A: A ≥ 75% degradation)”, the “MLLT1% Degradation @ 0.1 μM” value is “A (Category A: A ≥ 75% degradation)” and the “MLLT1% Degradation @ 1 μM” value is reported as “A (Category A: A ≥ 75% degradation)”.
As to `CN1CCC[C@@H]1c1cc2cnc(NC(=O)c3ccc(N4CCC(OC5CCN(c6cccc7c6CN(C6CCC(=O)NC6=O)C7=O)CC5)CC4)nc3)cc2[nH]1` (stereo partly drawn) [Example 145, 6-(4-((1-(2-(2,6-dioxopiperidin-3-yl)-1-oxoisoindolin-4-yl)piperidin-4-yl)oxy)piperidin-1-yl)-N-(2-((R)-1-methylpyrrolidin-2-yl)-1H-pyrrolo[3,2-c]pyridin-6-yl)nicotinamide], the IC50 in experiment [1] was at most 100 nM. In addition, in experiment [2], the “MLLT1% Degradation @ 0.01 μM” value is listed as “A (Category A: A ≥ 75% degradation)”, the “MLLT1% Degradation @ 0.1 μM” value is “A (Category A: A ≥ 75% degradation)” and the “MLLT1% Degradation @ 1 μM” value is listed as “A (Category A: A ≥ 75% degradation)”.
On to `CN1CCC[C@@H]1c1cc2cnc(NC(=O)c3ccc(-c4cnn(CCCC5CCN(c6cccc7c6C(=O)N(C6CCC(=O)NC6=O)C7=O)CC5)c4)cn3)cc2[nH]1` (stereo partly drawn) [Example 211, 5-(1-(3-(1-(2-(2,6-dioxopiperidin-3-yl)-1,3-dioxoisoindolin-4-yl)piperidin-4-yl)propyl)-1H-pyrazol-4-yl)-N-(2-((R)-1-methylpyrrolidin-2-yl)-1H-pyrrolo[3,2-c]pyridin-6-yl)picolinamide], for which the IC50 in experiment [1] is at most 100 nM. Also, in experiment [2], the “MLLT1% Degradation @ 0.01 μM” value is listed as “A (Category A: A ≥ 75% degradation)”, the “MLLT1% Degradation @ 0.1 μM” value is listed as “A (Category A: A ≥ 75% degradation)” and the “MLLT1% Degradation @ 1 μM” value was “A (Category A: A ≥ 75% degradation)”.
As to `CN1CCC[C@@H]1c1cc2cnc(NC(=O)c3cc(F)c(OCCC4CCN(c5cccc6c5CN(C5CCC(=O)NC5=O)C6=O)CC4)cc3F)cc2[nH]1` (stereo partly drawn) [Example 230, 4-(2-(1-(2-(2,6-dioxopiperidin-3-yl)-1-oxoisoindolin-4-yl)piperidin-4-yl)ethoxy)-2,5-difluoro-N-(2-((R)-1-methylpyrrolidin-2-yl)-1H-pyrrolo[3,2-c]pyridin-6-yl)benzamide], the IC50 in experiment [1] is at most 100 nM. For the same compound, in experiment [2], the “MLLT1% Degradation @ 0.01 μM” value is given as “A (Category A: A ≥ 75% degradation)”, the “MLLT1% Degradation @ 0.1 μM” value was “A (Category A: A ≥ 75% degradation)” and the “MLLT1% Degradation @ 1 μM” value is “A (Category A: A ≥ 75% degradation)”.
As to `CN1CCC[C@@H]1c1cc2cnc(NC(=O)c3ccc(N4CCN(Cc5ccc(-c6cccc7c6CN(C6CCC(=O)NC6=O)C7=O)cc5)CC4)cc3)cc2[nH]1` (stereo partly drawn) [Example 98, 4-(4-(4-(2-(2,6-dioxopiperidin-3-yl)-1-oxoisoindolin-4-yl)benzyl)piperazin-1-yl)-N-(2-((R)-1-methylpyrrolidin-2-yl)-1H-pyrrolo[3,2-c]pyridin-6-yl)benzamide], in experiment [1], the half-inhibitory concentration (IC50) was at most 100 nM. Further, in experiment [2], the “MLLT1% Degradation @ 0.01 μM” value is “A (Category A: A ≥ 75% degradation)”, the “MLLT1% Degradation @ 0.1 μM” value is “A (Category A: A ≥ 75% degradation)” and the “MLLT1% Degradation @ 1 μM” value was “A (Category A: A ≥ 75% degradation)”.
Turning to `CN1CCC[C@@H]1c1cc2cnc(NC(=O)c3ccc(OCCCC4CCN(c5cccc6c5CN(C5CCC(=O)NC5=O)C6=O)CC4)cc3F)cc2[nH]1` (stereo partly drawn) [Example 209, 4-(3-(1-(2-(2,6-dioxopiperidin-3-yl)-1-oxoisoindolin-4-yl)piperidin-4-yl)propoxy)-2-fluoro-N-(2-((R)-1-methylpyrrolidin-2-yl)-1H-pyrrolo[3,2-c]pyridin-6-yl)benzamide], the IC50 in experiment [1] is at most 100 nM. Moreover, in experiment [2], the “MLLT1% Degradation @ 0.01 μM” value is reported as “A (Category A: A ≥ 75% degradation)”, the “MLLT1% Degradation @ 0.1 μM” value is “A (Category A: A ≥ 75% degradation)” and the “MLLT1% Degradation @ 1 μM” value was “A (Category A: A ≥ 75% degradation)”.
With `CN1CCC[C@@H]1c1cc2cnc(NC(=O)c3ccc(OC4CCN(CC5CCN(c6ccc7c(c6)CN(C6CCC(=O)NC6=O)C7=O)CC5)CC4)cc3)cc2[nH]1` (stereo partly drawn) [Example 143, 4-((1-((1-(2-(2,6-dioxopiperidin-3-yl)-1-oxoisoindolin-5-yl)piperidin-4-yl)methyl)piperidin-4-yl)oxy)-N-(2-((R)-1-methylpyrrolidin-2-yl)-1H-pyrrolo[3,2-c]pyridin-6-yl)benzamide], the concentration for half-maximal inhibition (IC50) in experiment [1] was at most 100 nM. Also, in experiment [2], the “MLLT1% Degradation @ 0.01 μM” value is reported as “A (Category A: A ≥ 75% degradation)”, the “MLLT1% Degradation @ 0.1 μM” value was “A (Category A: A ≥ 75% degradation)” and the “MLLT1% Degradation @ 1 μM” value is reported as “A (Category A: A ≥ 75% degradation)”.
As for `CN1CCC[C@@H]1c1cc2cnc(NC(=O)c3ccc(N4CCN(CCC5CCN(c6cccc7c6CN(C6CCC(=O)NC6=O)C7=O)CC5)CC4)nc3)cc2[nH]1` (stereo partly drawn) [Example 193, 6-(4-(2-(1-(2-(2,6-dioxopiperidin-3-yl)-1-oxoisoindolin-4-yl)piperidin-4-yl)ethyl)piperazin-1-yl)-N-(2-((R)-1-methylpyrrolidin-2-yl)-1H-pyrrolo[3,2-c]pyridin-6-yl)nicotinamide], the IC50 in experiment [1] is at most 100 nM. Also, in experiment [2], the “MLLT1% Degradation @ 0.01 μM” value is “A (Category A: A ≥ 75% degradation)”, the “MLLT1% Degradation @ 0.1 μM” value is given as “A (Category A: A ≥ 75% degradation)” and the “MLLT1% Degradation @ 1 μM” value was “B (Category B: 50% ≤ B < 75% degradation)”.
With `CN1CCC[C@@H]1c1cc2cnc(NC(=O)c3ccc(OCCN4CCC(c5cccc6c5CN(C5CCC(=O)NC5=O)C6=O)CC4)cc3)cc2[nH]1` (stereo partly drawn) [Example 141, 4-(2-(4-(2-(2,6-dioxopiperidin-3-yl)-1-oxoisoindolin-4-yl)piperidin-1-yl)ethoxy)-N-(2-((R)-1-methylpyrrolidin-2-yl)-1H-pyrrolo[3,2-c]pyridin-6-yl)benzamide], in experiment [1], the IC50 is at most 100 nM. In experiment [2], the “MLLT1% Degradation @ 0.01 μM” value is “A (Category A: A ≥ 75% degradation)”, the “MLLT1% Degradation @ 0.1 μM” value is “A (Category A: A ≥ 75% degradation)” and the “MLLT1% Degradation @ 1 μM” value is given as “A (Category A: A ≥ 75% degradation)”.
For the compound `CN1CCC[C@@H]1c1cc2cnc(NC(=O)c3ccc(N4CCC(OCC5CCN(c6cccc7c6CN(C6CCC(=O)NC6=O)C7=O)CC5)CC4)nc3)cc2[nH]1` (stereo partly drawn) [Example 147, 6-(4-((1-(2-(2,6-dioxopiperidin-3-yl)-1-oxoisoindolin-4-yl)piperidin-4-yl)methoxy)piperidin-1-yl)-N-(2-((R)-1-methylpyrrolidin-2-yl)-1H-pyrrolo[3,2-c]pyridin-6-yl)nicotinamide], the IC50 in experiment [1] was at most 100 nM. Besides, in experiment [2], the “MLLT1% Degradation @ 0.01 μM” value is recorded as “A (Category A: A ≥ 75% degradation)”, the “MLLT1% Degradation @ 0.1 μM” value is given as “A (Category A: A ≥ 75% degradation)” and the “MLLT1% Degradation @ 1 μM” value is listed as “A (Category A: A ≥ 75% degradation)”.
